We go through 27 substances from article PMC7932537, “Quantitative profiling of protease specificity” (PLoS Computational Biology, 2021).

One experiment has as its target MMP-9 (Homo sapiens, UniProt P14780). As to the kind of experiment: K(obs) of individual phage substrates (set of 1369). Format: biochemical. Particulars: MMP9.
Experiment [1] concerns MMP-2. The experiment in a line: Substrate phage display with NGS: relative probability (RP) of P3-P1' tetramer clusters.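 Note: ratio of tetramer probability after protease selection to that in naive phage library.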 Particulars: MMP2. Format: biochemical, human.
In experiment [2] the target is T1, MMP-2 (Homo sapiens, UniProt P08253).
T1 sequence (P08253 110-660): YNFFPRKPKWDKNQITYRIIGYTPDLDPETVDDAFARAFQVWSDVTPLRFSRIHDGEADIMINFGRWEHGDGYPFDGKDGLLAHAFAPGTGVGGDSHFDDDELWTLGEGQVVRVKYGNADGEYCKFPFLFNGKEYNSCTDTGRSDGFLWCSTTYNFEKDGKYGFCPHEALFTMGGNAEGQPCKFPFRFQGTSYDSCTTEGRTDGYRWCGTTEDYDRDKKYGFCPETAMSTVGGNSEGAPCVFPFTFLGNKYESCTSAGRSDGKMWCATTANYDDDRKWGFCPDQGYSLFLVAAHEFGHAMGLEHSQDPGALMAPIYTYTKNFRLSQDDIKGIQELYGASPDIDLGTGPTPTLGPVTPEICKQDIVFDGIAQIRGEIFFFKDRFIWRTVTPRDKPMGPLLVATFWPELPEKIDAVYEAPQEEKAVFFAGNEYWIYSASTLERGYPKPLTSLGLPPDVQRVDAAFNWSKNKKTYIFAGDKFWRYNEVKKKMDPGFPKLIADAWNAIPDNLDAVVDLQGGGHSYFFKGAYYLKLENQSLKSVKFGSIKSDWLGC
As to the kind of experiment: K(obs) of individual phage substrates (set of 1369). Format: biochemical. Particulars: MMP2.

[3] abbreviates: individual phage substrate of the set of 1369 peptides, dash in the sequence marks the cleavage position.
The mark [4] stands for this setting: RP of the P3-P1' tetramer contained in the substrate.
The mark [5] stands for this setting: individual phage substrate of the set of 1369 peptides, cleavage position marked by '-'.
Where [6] appears, read: individual phage substrates, set of 1369 peptides, hyphen in sequence marks cleavage position.
The mark [7] stands for this setting: RP of the P3-P1' tetramer contained in the substrate (substrate phage display with NGS).
Setting [8] is: individual phage substrates, set of 1369 peptides, cleavage position marked by hyphen in sequence.

Sequence of MMP-9 (P14780 94-707): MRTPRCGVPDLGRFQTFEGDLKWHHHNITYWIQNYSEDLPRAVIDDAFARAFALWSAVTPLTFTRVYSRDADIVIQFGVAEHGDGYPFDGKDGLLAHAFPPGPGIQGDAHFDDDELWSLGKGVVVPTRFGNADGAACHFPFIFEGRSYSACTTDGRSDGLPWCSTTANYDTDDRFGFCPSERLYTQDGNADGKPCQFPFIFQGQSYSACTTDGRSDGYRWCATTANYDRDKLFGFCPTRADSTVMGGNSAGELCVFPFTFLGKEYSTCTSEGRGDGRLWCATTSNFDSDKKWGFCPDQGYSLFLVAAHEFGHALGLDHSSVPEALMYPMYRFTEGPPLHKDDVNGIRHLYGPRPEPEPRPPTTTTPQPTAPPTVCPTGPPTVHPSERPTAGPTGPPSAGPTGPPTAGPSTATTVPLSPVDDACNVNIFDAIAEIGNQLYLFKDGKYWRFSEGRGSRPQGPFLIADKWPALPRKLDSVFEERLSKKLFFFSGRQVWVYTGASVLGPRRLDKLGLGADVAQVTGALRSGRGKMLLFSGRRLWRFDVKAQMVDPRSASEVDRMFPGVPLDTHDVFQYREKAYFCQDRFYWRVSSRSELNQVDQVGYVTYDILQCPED

For FMPRN-TASGA, the “Kobs” value at MMP-9 (setting [3]) was found to be 12792.1 M⁻¹ s⁻¹; on MMP-2 [2] (setting [5]), 2837.92 M⁻¹ s⁻¹. For the same substance, the “relative probability (RP)” value with MMP-2 [1] (setting [4]) was 2.5391.
In the same order, the values of FMPSA-QTASG are 9740.44 M⁻¹ s⁻¹, 10866.7 M⁻¹ s⁻¹ and 28.0379.
In the same order, the values of FNPIH-LTASG are 10866.7 M⁻¹ s⁻¹, 12792.1 M⁻¹ s⁻¹ and 26.4106.
In the same order, the values of FPGRH-LTASG are 484.315 M⁻¹ s⁻¹, 1239.69 M⁻¹ s⁻¹ and 3.598.
For the substance FPVLS-LTASG, the “Kobs” value at MMP-9 (setting [6]) was 6396.07 M⁻¹ s⁻¹; at MMP-2 [2] (setting [8]) it was 10866.7 M⁻¹ s⁻¹. In the experiment with MMP-2 [1] (setting [7]), the “relative probability (RP)” value came out at 10.8506.
In the same order, the values of FQFEH-LTASG are 113.394 M⁻¹ s⁻¹, 874.197 M⁻¹ s⁻¹ and 1.21.
In the same order, the values of FSARS-LTASG are 4613.14 M⁻¹ s⁻¹, 8941.32 M⁻¹ s⁻¹ and 17.186.
In the same order, the values of FSLRQ-MTASG are 690.17 M⁻¹ s⁻¹, 990.764 M⁻¹ s⁻¹ and 8.677.
In the case of FSQLA-MTASG, the “Kobs” value at MMP-9 (setting [6]) and at MMP-2 [2] (setting [8]) was 0 M⁻¹ s⁻¹ in each case. Further, in the experiment with MMP-2 [1] (setting [7]), the “relative probability (RP)” value came to 5.241.
Regarding FVVRA-LTASG, the “Kobs” value on MMP-9 (setting [3]) was determined as 12792.1 M⁻¹ s⁻¹; on MMP-2 [2] (setting [5]), 9740.44 M⁻¹ s⁻¹. Moreover, in the experiment on MMP-2 [1] (setting [4]), the “relative probability (RP)” value came out at 30.4312.
In the same order, the values of GAAHG-IFTAS are 261.974 M⁻¹ s⁻¹, 690.17 M⁻¹ s⁻¹ and 8.881.
In the same order, the values of GAFRH-LRTAS are 0 M⁻¹ s⁻¹, 201.585 M⁻¹ s⁻¹ and 3.942.
In the same order, the values of GAPMN-VVTAS are 12792.1 M⁻¹ s⁻¹, 5889.62 M⁻¹ s⁻¹ and 12.9651.
As to GAPRF-LSTAS, the “Kobs” value on MMP-9 (setting [3]) and at MMP-2 [2] (setting [5]) was 12792.1 M⁻¹ s⁻¹ each time. Besides, in the experiment with MMP-2 [1] (setting [4]), the “relative probability (RP)” value is listed as 28.4443.
As to GAPRS-LQTAS, the “Kobs” value on MMP-9 (setting [3]) and on MMP-2 [2] (setting [5]) was 12792.1 M⁻¹ s⁻¹ each time. In addition, in the experiment with MMP-2 [1] (setting [4]), the “relative probability (RP)” value amounted to 33.3704.
Regarding GAPRS-LVTAS, the “Kobs” value at MMP-9 (setting [3]) and on MMP-2 [2] (setting [5]) was 12792.1 M⁻¹ s⁻¹ throughout. For the same substance, the “relative probability (RP)” value in the experiment with MMP-2 [1] (setting [4]) is reported as 33.3704.
Consider GAPWG-IHTAS, for which the “Kobs” value at MMP-9 (setting [3]) and on MMP-2 [2] (setting [5]) was 12792.1 M⁻¹ s⁻¹ each time. For the same substance, the “relative probability (RP)” value with MMP-2 [1] (setting [4]) is reported as 25.1508.
As for GAWHN-MRTAS, the “Kobs” value at MMP-9 (setting [6]) and at MMP-2 [2] (setting [8]) was 0 M⁻¹ s⁻¹ throughout. In addition, the “relative probability (RP)” value in the experiment with MMP-2 [1] (setting [7]) is 0.
On to GCPHM-MTASG, for which the results for the “Kobs” value on MMP-9 (setting [6]) and on MMP-2 [2] (setting [8]) were 1327.88 M⁻¹ s⁻¹ and 654.784 M⁻¹ s⁻¹, respectively. Besides, the “relative probability (RP)” value in the experiment on MMP-2 [1] (setting [7]) is 14.968.
In the same order, the values of GCPLS-LYTAS are 6688.74 M⁻¹ s⁻¹, 4335.13 M⁻¹ s⁻¹ and 33.5282.
For GCVRF-LQTAS, the “Kobs” value was 1071.29 M⁻¹ s⁻¹ on MMP-9 (setting [3]) and 1239.69 M⁻¹ s⁻¹ on MMP-2 [2] (setting [5]). Further, the “relative probability (RP)” value in the experiment on MMP-2 [1] (setting [4]) came out at 15.0438.
Take GDMRH-LSTAS: the results for the “Kobs” value on MMP-9 (setting [6]) and on MMP-2 [2] (setting [8]) were 799.117 M⁻¹ s⁻¹ and 1561.44 M⁻¹ s⁻¹, respectively. Moreover, the “relative probability (RP)” value with MMP-2 [1] (setting [7]) is on record as 14.413.
As for GDPYG-MRTAS, the “Kobs” value on MMP-9 (setting [3]) is 4922.1 M⁻¹ s⁻¹; on MMP-2 [2] (setting [5]) it was 3850.82 M⁻¹ s⁻¹. Also, the “relative probability (RP)” value in the experiment on MMP-2 [1] (setting [4]) was determined as 27.2726.
In the same order, the values of GDPYS-LRTAS are 12792.1 M⁻¹ s⁻¹, 4922.1 M⁻¹ s⁻¹ and 30.7259.
On to GEFAA-LQTAS, for which the “Kobs” value on MMP-9 (setting [6]) was determined as 323.705 M⁻¹ s⁻¹; at MMP-2 [2] (setting [8]) it was 2615.58 M⁻¹ s⁻¹. Further, the “relative probability (RP)” value in the experiment with MMP-2 [1] (setting [7]) worked out at 18.8584.
In the same order, the values of GEFRS-MRTAS are 0 M⁻¹ s⁻¹, 1763.55 M⁻¹ s⁻¹ and 5.389.
In the same order, the values of GEPNY-LKTAS are 1239.69 M⁻¹ s⁻¹, 2687.73 M⁻¹ s⁻¹ and 17.2533.
